Test results reported in ChEMBL document CHEMBL3509421, “FDA drug approval package for diclofenac acid (NDA 22-202 CP, Ref ID: 3374276)”.

How the values were obtained:
[1] = (§1) Mean AUC (0-infinity) value of diclofenac following single oral dosing of 35 mg Zorvolex capsule in healthy human; format: ADME, organism-based; set-up: time infinity, dietary status Fasting, dose 35 mg, dosed compound id 2.46815e+06, dosed compound name Diclofenac, gender Mixed, regimen Single, route oral; settings: both, plasma, read-out: AUC (0-infinity)
[2] = Geometric mean for AUC (0-infinity) of diclofenac following single oral dosing of 35 mg Zorvolex capsule in healthy human; format: ADME, organism-based; set-up: time infinity, dietary status Fasting, dose 35 mg, dosed compound id 2.46815e+06, dosed compound name Diclofenac, gender Mixed, regimen Single, route oral; settings: both, plasma, read-out: AUC (0-infinity)
[3] = Mean AUC (0-infinity) value of diclofenac following single oral dosing of 50 mg Cataflam tablet in healthy human; format: ADME, organism-based; set-up: time infinity, dietary status Fed, dose 50 mg, dosed compound id 2.46815e+06, dosed compound name Diclofenac potassium, gender Mixed, regimen Single, route oral; settings: both, plasma, read-out: AUC (0-infinity)
[4] = Mean Cmax of diclofenac potassium following oral dosing of Cataflam 50 mf tablet in healthy human; format: ADME, organism-based; set-up: dietary status Fasting, dose 50 mg, dosed compound id 2.46815e+06, dosed compound name Diclofenac potassium, gender Mixed, regimen Single, route oral, study doses 50 mg; settings: both, plasma, 50 mg
[5] = Geometric mean for apparent terminal elimination rate constant of diclofenac following single oral dosing of 18 mg Zorvolex capsule in healthy human; format: ADME, organism-based, Plasma; set-up: dietary status Fasting, dose 18 mg, dosed compound id 2.46815e+06, dosed compound name Diclofenac, gender Mixed, regimen Single, route oral; settings: in vivo
[6] = Geometric mean for Cmax of diclofenac following single oral dosing of 50 mg Cataflam tablet in healthy human; format: ADME, organism-based; set-up: dietary status Fasting, dose 50 mg, dosed compound id 2.46815e+06, dosed compound name Diclofenac potassium, gender Mixed, regimen Single, route oral; settings: both, plasma
[7] = Mean Cmax of diclofenac following single oral dosing of 25 mg diclofenac potassium softgel capsule in healthy human; format: ADME, organism-based; set-up: dietary status Fasting, dose 25 mg, dosed compound id 2.46815e+06, dosed compound name Diclofenac potassium, gender Mixed, regimen Single, route oral, study doses 25/50 mg; settings: both, plasma
[8] = (§2) Mean AUC(0-t) of diclofenac potassium following oral dosing of PRO-513 50 mg sachet in healthy human; format: ADME, organism-based; set-up: dietary status Fed, dose 50 mg, dosed compound id 2.46815e+06, dosed compound name Diclofenac potassium, gender Mixed, regimen Single, route oral, study doses 50 mg; settings: both, plasma
[9] = Geometric mean for AUC (0-infinity) of diclofenac following single oral dosing of 18 mg Zorvolex capsule in healthy human; format: ADME, organism-based; set-up: time infinity, dietary status Fasting, dose 18 mg, dosed compound id 2.46815e+06, dosed compound name Diclofenac, gender Mixed, regimen Single, route oral; settings: both, plasma, read-out: AUC (0-infinity)
[10] = Mean Cmax of diclofenac following single oral dosing of 25 mg diclofenac potassium soft gelatin capsule in healthy human; format: ADME, organism-based; set-up: dietary status Fasting, dose 25 mg, dosed compound id 2.46815e+06, dosed compound name Diclofenac potassium, gender Mixed, regimen Single, route oral, study doses 25/50 mg; settings: both, plasma
[11] = Mean AUC(0-infinity) of diclofenac following single oral dosing of 50 mg diclofenac potassium soft gelatin capsule in healthy human; format: ADME, organism-based; set-up: time infinity, dietary status Fasting, dose 50 mg, dosed compound id 2.46815e+06, dosed compound name Diclofenac potassium, gender Mixed, regimen Single, route oral, study doses 25/50 mg; settings: both, plasma, read-out: AUC (0-infinity)
[12] = Geometric mean for AUC (0-t) of diclofenac following single oral dosing of 50 mg Cataflam tablet in healthy human; format: ADME, organism-based; set-up: dietary status Fasting, dose 50 mg, dosed compound id 2.46815e+06, dosed compound name Diclofenac potassium, gender Mixed, regimen Single, route oral; settings: both, plasma
[13] = (§3) Mean median Tmax value of diclofenac potassium following oral dosing of Cataflam 50 mf tablet in healthy human; format: ADME, organism-based; set-up: dietary status Fasting, dose 50 mg, dosed compound id 2.46815e+06, dosed compound name Diclofenac potassium, gender Mixed, regimen Single, route oral, study doses 50 mg; settings: both, plasma, 50 mg, read-out: Median Tmax
[14] = as §2; format: ADME, organism-based; set-up: dietary status Fasting, dose 50 mg, dosed compound id 2.46815e+06, dosed compound name Diclofenac potassium, gender Mixed, regimen Single, route oral, study doses 50 mg; settings: both, plasma
[15] = Mean AUC(0-t) of diclofenac following single oral dosing of 50 mg diclofenac potassium soft gelatin capsule in healthy human; format: ADME, organism-based; set-up: dietary status Fasting, dose 50 mg, dosed compound id 2.46815e+06, dosed compound name Diclofenac potassium, gender Mixed, regimen Single, route oral, study doses 25/50 mg; settings: both, plasma
[16] = Mean AUC(0-infinity) of diclofenac following single oral dosing of 25 mg diclofenac potassium soft gelatin capsule in healthy human; format: ADME, organism-based; set-up: time infinity, dietary status Fasting, dose 25 mg, dosed compound id 2.46815e+06, dosed compound name Diclofenac potassium, gender Mixed, regimen Single, route oral, study doses 25/50 mg; settings: both, plasma, read-out: AUC (0-infinity)
[17] = Mean AUC (0-infinity) of diclofenac following single oral dosing of 25 mg diclofenac potassium softgel capsule in healthy human; format: ADME, organism-based; set-up: time infinity, dietary status Fasting, dose 25 mg, dosed compound id 2.46815e+06, dosed compound name Diclofenac potassium, gender Mixed, regimen Single, route oral, study doses 25/50 mg; settings: both, plasma, read-out: AUC (0-infinity)
[18] = Maximum tmax of diclofenac following single oral dosing of 18 mg Zorvolex capsule in healthy human; format: ADME, organism-based, Plasma; set-up: dietary status Fasting, dose 18 mg, dosed compound id 2.46815e+06, dosed compound name Diclofenac, gender Mixed, regimen Single, route oral; settings: in vivo
[19] = Minimum tmax of diclofenac following single oral dosing of 35 mg Zorvolex capsule in healthy human; format: ADME, organism-based, Plasma; set-up: dietary status Fed, dose 35 mg, dosed compound id 2.46815e+06, dosed compound name Diclofenac, gender Mixed, regimen Single, route oral; settings: in vivo
[20] = as §3; format: ADME, organism-based; set-up: dietary status Fed, dose 50 mg, dosed compound id 2.46815e+06, dosed compound name Diclofenac potassium, gender Mixed, regimen Single, route oral, study doses 50 mg; settings: both, plasma, 50 mg, read-out: Median Tmax
[21] = Mean Cmax of diclofenac following single oral dosing of 50 mg diclofenac potassium softgel capsule in healthy human; format: ADME, organism-based; set-up: dietary status Fasting, dose 50 mg, dosed compound id 2.46815e+06, dosed compound name Diclofenac potassium, gender Mixed, regimen Single, route oral, study doses 25/50 mg; settings: both, plasma
[22] = as §1; format: ADME, organism-based; set-up: time infinity, dietary status Fed, dose 35 mg, dosed compound id 2.46815e+06, dosed compound name Diclofenac, gender Mixed, regimen Single, route oral; settings: both, plasma, read-out: AUC (0-infinity)
[23] = Mean Cmax value of diclofenac following single oral dosing of 50 mg Cataflam tablet in healthy human; format: ADME, organism-based; set-up: dietary status Fed, dose 50 mg, dosed compound id 2.46815e+06, dosed compound name Diclofenac potassium, gender Mixed, regimen Single, route oral; settings: both, plasma
[24] = Mean minimum Tmax value of diclofenac potassium following oral dosing of PRO-513 50 mg sachet in healthy human; format: ADME, organism-based, Plasma; set-up: dietary status Fed, dose 50 mg, dosed compound id 2.46815e+06, dosed compound name Diclofenac potassium, gender Mixed, regimen Single, route oral, study doses 50 mg; settings: in vivo
[25] = Geometric mean for AUC (0-t) of diclofenac following single oral dosing of 35 mg Zorvolex capsule in healthy human; format: ADME, organism-based; set-up: dietary status Fed, dose 35 mg, dosed compound id 2.46815e+06, dosed compound name Diclofenac, gender Mixed, regimen Single, route oral; settings: both, plasma
[26] = Median tmax of diclofenac following single oral dosing of 50 mg Cataflam tablet in healthy human; format: ADME, organism-based; set-up: dietary status Fasting, dose 50 mg, dosed compound id 2.46815e+06, dosed compound name Diclofenac potassium, gender Mixed, regimen Single, route oral; settings: both, plasma, read-out: Median Tmax
clinical = settings: both, human, plasma, po, 50 mg
[27] = Mean Tmax of diclofenac following single oral dosing of 50 mg diclofenac potassium softgel capsule in healthy human; format: ADME, organism-based; set-up: dietary status Fasting, dose 50 mg, dosed compound id 2.46815e+06, dosed compound name Diclofenac potassium, gender Mixed, regimen Single, route oral, study doses 25/50 mg; settings: both, plasma
[28] = Mean AUC (0-infinity) of diclofenac following single oral dosing of 50 mg diclofenac potassium softgel capsule in healthy human; format: ADME, organism-based; set-up: time infinity, dietary status Fasting, dose 50 mg, dosed compound id 2.46815e+06, dosed compound name Diclofenac potassium, gender Mixed, regimen Single, route oral, study doses 25/50 mg; settings: both, plasma, read-out: AUC (0-infinity)
[29] = Mean Tmax of diclofenac following single oral dosing of 50 mg Cataflam in healthy human; format: ADME, organism-based; set-up: dietary status Fasting, dose 50 mg, dosed compound id 2.46815e+06, dosed compound name Diclofenac potassium, gender Mixed, regimen Single, route oral, study doses 50 mg; settings: both, plasma
[30] = Mean maximum Tmax value of diclofenac potassium following oral dosing of Cataflam 50 mf tablet in healthy human; format: ADME, organism-based; set-up: dietary status Fed, dose 50 mg, dosed compound id 2.46815e+06, dosed compound name Diclofenac potassium, gender Mixed, regimen Single, route oral, study doses 50 mg; settings: both, plasma, 50 mg, read-out: Maximum Tmax

## O=C(O)Cc1ccccc1Nc1c(Cl)cccc1Cl [DICLOFENAC]
[1]
  AUC(0-inf): 1000 ng·h/mL
[2]
  AUC(0-inf): 979 ng·h/mL
[3]
  AUC(0-inf): 1200 ng·h/mL
[4]
  Cmax: 1160 ng/mL
[5]
  lambda-z: 0.384 h⁻¹
[6]
  Cmax: 1090 ng/mL
[7]
  Cmax: 1160 ng/mL
[8]
  AUC(0-t): 1050 ng·h/mL
[9]
  AUC(0-inf): 487 ng·h/mL
[10]
  Cmax: 1120 ng/mL
[11]
  AUC(0-inf): 1230 ng·h/mL
[12]
  AUC(0-t): 1290 ng·h/mL
[13]
  Tmax: 0.5 h
[14]
  AUC(0-t): 1240 ng·h/mL
[15]
  AUC(0-t): 1200 ng·h/mL
[16]
  AUC(0-inf): 603 ng·h/mL
[17]
  AUC(0-inf): 706 ng·h/mL
[18]
  Maximum Tmax: 4.5 h
[19]
  Minimum Tmax: 0.5 h
[20]
  Tmax: 1.25 h
[21]
  Cmax: 2360 ng/mL
[22]
  AUC(0-inf): 876 ng·h/mL
[23]
  Cmax: 713 ng/mL
[24]
  Minimum Tmax: 4.8 min
[25]
  AUC(0-t): 837 ng·h/mL
[26]
  Tmax: 1 h
clinical
  half-life: 2.15 h
[27]
  Tmax: 0.51 h
[28]
  AUC(0-inf): 1550 ng·h/mL
[29]
  Tmax: 0.93 h
[30]
  Tmax: 8 h
